# Results as given in patent publication US6914045B2, “Glycopeptide antibiotics” (Wyeth Holdings Corporation, priority 2001, dated 2005).
# Numbered stars: 1 amine (or outer) side, 2 acyl side, 3 side chain; on linkers, the order of the positions; unused ones are H or OH. Square brackets hold non-standard residues; d marks the D form. Peptide text beside a SMILES is read from it. * marks the point of attachment. ξ: configuration not given here. X1 = N=C1NCC(C(O)C(N[*:1])C(=O)[*:2])N1C1OC(CO)C(O)C(O)C1O; ξEnduracididine(βξ-OH,4'ξ) = N=C1NCC(C(O)C(N)C(=O)O)N1; X2 = OCC1OC(OC2C(CO)OC(*)C(O)C2O)C(O)C(O)C1O; Diphenylacetyl = O=C(C(c1ccccc1)c1ccccc1)*; ξPhe(βξ-Me) = CC(c1ccccc1)C(N)C(=O)O
# How the values were obtained:
# Assay in all cases: in vitro antibacterial evaluation, MIC by broth dilution
# Type in all cases: cell-based
# Enterococcus sp. = conditions: broth dilution, 18 hours at 35° C.
# Experimental: (§1) Methods for in vitro Antibacterial Evaluation (Table 1)
# (§2) The minimum inhibitory concentration (MIC), the lowest concentration of the antibiotic which inhibits growth of the test organism, is determined by the broth dilution method using Muller-Hinton II […] (Baltimore Biological Laboratories) following the recommendations of the National Committee for Clinical Laboratory Standards [Methods for dilution antimicrobial susceptibility tests for bacteria that grow aerobically, approved standard M7-A2, National Committee for Clinical Laboratory Standards, Villanova, Pa.].
# (§3) An inoculum level of 5×10^5 CFU/mL, and a range of antibiotic concentrations (64-0.06 μg/mL) is used. […] The test organisms include a spectrum of Gram-positive bacteria comprised of Staphylococcus sp., Streptococcus sp. and Enterococcus sp. These organisms include recent clinical isolates that are resistant to methicillin, penicillin and/or vancomycin.
# Staphylococcus sp. = conditions: broth dilution, 18 hours at 35° C.
# Experimental: as §1, §2, §3
# Streptococcus sp. = conditions: broth dilution, 18 hours at 35° C.
# Experimental: as §1, §2, §3
# Escherichia coli = conditions: 18 hours at 35° C.
# Summary of the method: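 MIC is the lowest antibiotic concentration (tested 64-0.06 μg/mL) preventing growth of a 5×10^5 CFU/mL inoculum. Determined by broth dilution in Mueller-Hinton II medium following NCCLS standard M7-A2.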
structure (smiles),measurement,setting,value
"CC(c1ccccc1)C1NC(=O)CNC(=O)C(COC(=O)C(c2ccccc2)c2ccccc2)NC(=O)C(C(O)C2CNC(=N)N2C2OC(CO)C(O)C(O)C2O)NC(=O)C(C(O)C2CNC(=N)N2)NC(=O)C(Cc2ccc(OC3OC(CO)C(OC4OC(CO)C(O)C(O)C4O)C(O)C3O)cc2)NC1=O (stereo not drawn) [Example 96a, Cyclo[glycyl-β-methylphenylalanyl-O-(4-O-hexopyranosylhexopyranosyl)tyrosyl-3-(2-iminoimidazolidin-4-yl)seryl-3-(3-hexopyranosyl-2-iminoimidazolidin-4-yl)seryl-O-(diphenylacetyl)-seryl]] (cyclo(G[ξPhe(βξ-Me)]Y(X2)[ξEnduracididine(βξ-OH,4'ξ)][X1]S(Diphenylacetyl)); configuration not given here)",MIC Enterococcus avium (GC 4558),Enterococcus sp.; Enterococcus avium (GC 4558),>128 µg/mL
same,MIC Enterococcus faecalis (ATCC 29212),Enterococcus sp.; Enterococcus faecalis (ATCC 29212),>128 µg/mL
same,MIC Enterococcus faecalis (GC 2242),Enterococcus sp.; Enterococcus faecalis (GC 2242),>128 µg/mL
same,MIC Enterococcus faecalis (GC 4552),Enterococcus sp.; Enterococcus faecalis (GC 4552),>128 µg/mL
same,MIC Enterococcus faecalis (GC 4553),Enterococcus sp.; Enterococcus faecalis (GC 4553),>128 µg/mL
same,MIC Enterococcus faecalis (GC 4554),Enterococcus sp.; Enterococcus faecalis (GC 4554),>128 µg/mL
same,MIC Enterococcus faecium (GC 2243),Enterococcus sp.; Enterococcus faecium (GC 2243),128 µg/mL
same,MIC Enterococcus faecium (GC 4556),Enterococcus sp.; Enterococcus faecium (GC 4556),>128 µg/mL
same,MIC Enterococcus faecium (GC 4557),Enterococcus sp.; Enterococcus faecium (GC 4557),32 µg/mL
same,MIC Enterococcus avium (GC 4558),Enterococcus sp.,>128 µg/mL
same,MIC Enterococcus faecalis (ATCC 29212),Enterococcus sp.,>128 µg/mL
same,MIC Enterococcus faecalis (GC 2242),Enterococcus sp.,>128 µg/mL
same,MIC Enterococcus faecalis (GC 4552),Enterococcus sp.,>128 µg/mL
same,MIC Enterococcus faecalis (GC 4553),Enterococcus sp.,>128 µg/mL
same,MIC Enterococcus faecalis (GC 4554),Enterococcus sp.,>128 µg/mL
same,MIC Enterococcus faecium (GC 2243),Enterococcus sp.,128 µg/mL
same,MIC Enterococcus faecium (GC 4556),Enterococcus sp.,>128 µg/mL
same,MIC Enterococcus faecium (GC 4557),Enterococcus sp.,32 µg/mL
same,MIC Coagulase Negative Staphylococcus (GC 4547),Staphylococcus sp.,128 µg/mL
same,MIC Coagulase Negative Staphylococcus (GC 4548),Staphylococcus sp.,>128 µg/mL
same,MIC Coagulase Negative Staphylococcus (GC 4549),Staphylococcus sp.,64 µg/mL
same,MIC Coagulase Negative Staphylococcus (GC 4551),Staphylococcus sp.,128 µg/mL
same,MIC Coagulase Negative Staphylococcus (ID-3941),Staphylococcus sp.,64 µg/mL
same,MIC Staphylococcus aureus-SMITH (GC 4543),Staphylococcus sp.,>128 µg/mL
same,MIC Staphylococcus haemolyticus (GC 4546),Staphylococcus sp.,128 µg/mL
same,MIC Staphylococcus haemolyticus (GC 4546),Staphylococcus sp.; strain GC 4546,128 µg/mL
same,MIC Coagulase Negative Staphylococcus (GC 4547),Staphylococcus sp.; strain GC 4547,128 µg/mL
same,MIC Coagulase Negative Staphylococcus (GC 4548),Staphylococcus sp.; strain GC 4548,>128 µg/mL
same,MIC Coagulase Negative Staphylococcus (GC 4549),Staphylococcus sp.; strain GC 4549,64 µg/mL
same,MIC Coagulase Negative Staphylococcus (GC 4551),Staphylococcus sp.; strain GC 4551,128 µg/mL
same,MIC Coagulase Negative Staphylococcus (ID-3941),Staphylococcus sp.; strain ID-3941,64 µg/mL
same,MIC Staphylococcus aureus-SMITH (GC 4543),Staphylococcus sp.; strain SMITH GC 4543,>128 µg/mL
same,MIC Staphylococcus aureus (ATCC 29213),Staphylococcus sp.; strain ATCC 29213,>128 µg/mL
same,MIC Staphylococcus aureus (GC 1131),Staphylococcus sp.; strain GC 1131,>128 µg/mL
same,MIC Staphylococcus aureus (GC 4541),Staphylococcus sp.; strain GC 4541,128 µg/mL
same,MIC Staphylococcus aureus (GC 4542),Staphylococcus sp.; strain GC 4542,>128 µg/mL
same,MIC Staphylococcus aureus (GC 4544),Staphylococcus sp.; strain GC 4544,>128 µg/mL
same,MIC Staphylococcus aureus (GC 4545),Staphylococcus sp.; strain GC 4545,>128 µg/mL
same,MIC Streptococcus agalactiae (GC 4564),Streptococcus sp.; Streptococcus agalactiae (GC 4564),32 µg/mL
same,MIC Streptococcus pneumoniae (GC 4565),Streptococcus sp.; Streptococcus pneumoniae (GC 4565),16 µg/mL
same,MIC Streptococcus pyogenes (ID-3187),Streptococcus sp.; Streptococcus pyogenes (ID-3187),32 µg/mL
same,MIC Streptococcus agalactiae (GC 4564),Streptococcus sp.,32 µg/mL
same,MIC Streptococcus pneumoniae (GC 4565),Streptococcus sp.,16 µg/mL
same,MIC Streptococcus pyogenes (ID-3187),Streptococcus sp.,32 µg/mL
same,MIC Escherichia coli (ATCC 25922),Escherichia coli,>128 µg/mL
